# Data taken from patent US9550978B2, “Isolation and functional identification of cells” (CAPROTEC BIOANALYTICS GMBH, priority 2010, dated 2017).
# What was measured:
# [1] = system: HT-1080 cells; assay: Marimastat-specific tagging of adherent cells by capture compound coated magnetic particles (Example 2a); type: cell-based, human; details: culture "con", with free marimastat competitor; light microscopy
# From the text: Cell culture supernatant (10% heat inactivated fetal calf serum (PAA Laboratories GmbH), 1× Penicillin/Streptomycin (PAA) in DMEM (Dulbecco's Modified Eagle Medium) High Glucose (4.5 g/l) with stable glutamin (PAA)) was removed from two cell cultures of adherent fibrosarcoma cells (cell line HT-1080 (ACC 315 Deutsche Sammlung von Mikroorganismen and Zellkulturen DSMZ Braunschweig; densely grown; 3.5 cm petri dish; passage 9) and added to further cell culture supernatant from a larger culture. The petri dish was closed to avoid drying of the cells.
# 20 μl 10 mg/ml strepatavidin coated magnetic particles of 1 μm diameter (Dynabeads MyOne Steptavidin C1 (Dynal)) (streptavidin magnetic particles or particles in the following) were mixed with 10 μl 100 μM marimastat capture compound V (caprotec bioanalytics GmbH)
# [drawing 4] and incubated 10 min at room temperature. The particles were collected at the inner vial wall by applying a strong magnet (caproMag, caprotec bioanalytics GmbH, containing a 150×9×7 mm neodymium magnet (NdFeB) of quality N52 (1.43 Tesla)), and the supernatant was discarded. The particles were resuspended in 500 μl HT-1080 cell culture supernatant, collected magnetically anew and resuspended in 200 μl water, giving a 1 mg/ml marimastat capture compound-particle suspension. […]
# [2] = target: T1, marimastat-binding protein on the cell surface of HT-1080 cells (Homo sapiens, UniProt P50281); assay: Photochemical crosslink on cell surface, detection by streptavidin-horseradish peroxidase blot (Example 5a); details: sample "C": 0.5 mmol/l marimastat competitor, UV irradiated
# T1 construct: densely grown with adherent HT-1080 cells; endogenous in cells; host or cells: HT-1080 cells (adherent, not recombinant)
# Procedure: Five times three sterile petri dishes with 3.5 cm diameter were densely grown with adherent HT-1080 cells (passage 10, see example 2 for medium and conditions). The cell culture supernatant was collected and 400 μl of this supernatant was again applied onto the cells such that the cells were covered with a layer of cell culture supernatant. Three of the petri dishes were labeled, respectively, “A”, “C”, “PD”, “PDC” and “noCC”. To “A”, “PD” and “noCC” were added 20 μl ultrapure water, respectively. To “C” and “PDC” were added 20 μl 10 mmol/l marimastat, respectively (0.5 mmol/l final concentration) and homogenized by swaying. To “A”, “C”, “PD” and “PDC” were added 2 μl 100 μmol/l marimastat capture compound (0.5 μmol/l final concentration) and homogenized by swaying. After a 2 min incubation, cells with supernatant of petri dishes “A”, “C” and “noCC” (open lids) were irradiated for 1 min with UV light (λmax=310 nm, caproBox, caprotec Bioanalytics GmbH, Berlin). Cells with supernatant of petri dishes “PD” and “PDC” were not irradiated but otherwise treated the same (incubated in caproBox for 1 min without irradiation). The supernatant was collected and discarded (in a repetition experiment, this supernatant was also analyzed as described in example 5b). […]
# [3] = system: HT-1080 cells; assay: Specific magnetic isolation of selectively tagged cells (Example 3); type: cell-based, human; details: control "con", free marimastat competitor
# Procedure: After tagging and washing (method 2, see example 2b) the supernatant was removed from cultures “ver” and “con” and the cultures were treated with 200 μl non-enzymatic cell dissociation solution (Sigma), followed by 10 min incubation at room temperature. […] The cells were moved to two 200 μl PCR vials labelled “ver” and “con”, respectively.
# [4] = system: HT-1080 cells; assay: Immobilization of cells from suspension on streptavidin coated multititer plates (Example 4); type: cell-based, human; details: mean of three samples
# Procedure: HT-1080 cells (see above) were treated for 30 min in cell culture medium with calcein AM to fluorescently stain the cytosol and were provided in suspension (obtained by scraping off the adherent cells using a cell spatula) at a final concentration of ˜0.5*10^6/ml in culture medium. White blood cells (WBC) freshly obtained from a donor by lysis of erythrocytes and subsequent washing and resuspension were adjusted to a final concentration of ˜5*10^6/ml in phosphate buffered saline (PBS). 12-well multititer plates (streptavidin coated) were used for cell immobilization.
# Samples of HT-1080 cells to be used as controls were treated with adjusted to 50 μmol/l free marimastat in medium by adding a stock solution (10 mM) of the competitor (samples marked “C”). Non-competitor verum samples are marked “A”.
# Samples treated with marimastat capture compound in solution were adjusted to 0.5 μmol/l capture compound in medium from 20 μmol/l stock solution (samples labelled “ind”), or attached to the capture compound-treated streptavidin-coated surface (samples labelled “dir”).
# For determining the influence on binding by activating the reactivity function by UV irradiation (samples labelled “UV”) in samples for indirect binding (first capture compound attaching to cells, then cells binding to surface), cells were irradiated for 1 min by a near UV laboratory source (λmax=310 nm, caproBox, caprotec bioanalytics GmbH, Berlin) in an uncoated well (or not for samples without UV irradiation), collected, spun down, washed, and transferred to a streptavidin-coated well (incubation time˜3 h). Samples for direct binding were brought into capture compound coated wells (prepared as described below) directly (incubation time˜3 h) and UV-irradiated therein (or not for samples without UV irradiation). For loading the streptavidin-coated microtiter plates with capture compound, the wells were rinsed repeatedly for 10 min with 10 μl of 20 μM marimastat capture compound per well in 200 μl PBS at room temperature; the supernatant was discarded and the wells were washed with PBS.
# The medium over the cells bound to the surface was mainly removed (a minimum rest was left to cover the cells and not let the cells dry) and all wells were washed carefully two times with 1 ml medium. HT-1080 cells were counted by their calcein AM fluorescence using a Cellavista system. Values below are adjusted for HT-1080 cell numbers delivered onto the well (1.9*10^5).
# [5] = target: T2, MMP14 (Homo sapiens, UniProt P50281); assay: Capture Compound Mass Spectrometry (CCMS) identification of the marimastat-binding protein (Example 5b); details: excess marimastat competitor
# T2 construct: densely grown with adherent HT-1080 cells; endogenous in cells; host or cells: HT-1080 cells (adherent, not recombinant)
# Procedure: In a repetition of the experiment described in example 5a, the magnetic particles after the wash buffer and water wash steps (end of 5a.ii) were additionally washed six times with 200 μl 80% acetonitrile and once with 200 μl ultrapure water. The proteins captured on the particles were digested by addition of 9 μl 50 mmol/l ammonium bicarbonate and 1 μl 0.5 mg/ml trypsin (Sequencing Grade, Roche, ProdNo. 11047841001) in 1 mmol/l HCl. The particles were kept in suspension in this solution by shaking (2000 rpm) at 37° C. over night. After magnetically separating the particles, the supernatant was evaporated and the contained tryptic peptides were analyzed by nanoLC-MS/MS after dissolving them in 0.1% formic acid (equipment: Easy-nLC liquid chromatography system; Proxeon Biosystems A/S and LTQ Orbitrap Velos mass spectrometer; Thermo Scientific). The peptide and protein identification by automated sequence database search was performed on the one hand using the search algorithms SEQUEST (implemented in the Proteome Discoverer software 1.2.0.208, Thermo Scientific) and X!Tandem (The Global Proteome Machine Organization; version 2007.01.01.1, implementiert in the Scaffold software, version 3_00_03, Proteome Software Inc.) or on the other hand using MaxQuant (version 1.1.1.25, Cox, J. and Mann, M. (2008) Nat Biotechnol 26, 1367-72.) for label-free quantification of proteins. […]
# [6] = system: HT-1080 cells; assay: Method 2: cell tagging with capture compound first, then streptavidin magnetic particles (Example 2b); type: cell-based, human; details: culture "con", free marimastat competitor added first
# Procedure: Cell culture supernatant of two cell cultures of adherent fibrosarcoma cells of cell line HT-1080 was prepared as described above (example 2a).
# The cultures were spiked with 400 μl cell culture supernatant each. “Ver” received 20 μl water, control “con” received 20 μl 10 mM free marimastat (competitor), both cultures were swayed for mixing and incubated 3 min at room temperature, carefully keeping the cell layer wet at all times. During this step, the free marimastat in culture “con” binds to marimastat-binding proteins or protein complexes on the surface of cells and blocks their binding sites, preventing marimastat capture compounds from binding during the subsequent step. 2 μl 100 μmol/l marimastat capture compound was added to each culture, shaken gently and incubated 5 min at room temperature. Binding of the marimastat capture compound only happens on the cell surface proteins in culture “ver” (which are not blocked). The supernatant was removed from each, both cultures were washed with 400 μl fresh cell culture supernatant twice to remove excess marimastat capture compound, and 400 μl fresh cell culture supernatant was added each. 1 μl of 10 mg/ml strepatavidin coated magnetic particles of 1 μm diameter (Dynabeads MyOne Steptavidin C1 (Dynal)), was added to each culture, homogenized by swaying and incubated 30 min at room temperature. […]
smiles,measurement,setting,value
CNC(=O)[C@@H](NC(=O)[C@H](CC(C)C)[C@H](O)C(=O)NO)C(C)(C)C [marimastat],tagging of cells on their surface by particles after washing,[1],"not marked, or to only very little extent"
same,blot signal of protein photochemically crosslinked with the capture compound,[2],the signal is absent
same,retention of tagged cells at vial wall by magnet,[3],mostly sunk to the bottom of the vial
same,Percent input cells recovered,"[4]; C dir (no UV): direct binding, marimastat excess competitor, no UV",14.5 (standard deviation of Percent
same,Percent input cells recovered,"[4]; C dir UV: direct binding, marimastat excess competitor, UV activated",7.9 (standard deviation of Percent
same,Percent input cells recovered,"[4]; C ind (no UV): indirect binding, marimastat excess competitor, no UV",1.1 (standard deviation of Percent
same,Percent input cells recovered,"[4]; C ind UV: indirect binding, 50 μmol/l free marimastat competitor, UV activated",0.7 (standard deviation of Percent
same,MMP14 capture in presence of competitor (MaxQuant analysis),[5],completely suppressed
same,particle tagging of cells after washing,[6],little or no particles are visible
